In patent publication US20210138025A1, “CATIONIC PEPTIDES WITH IMMUNOMODULATORY AND/OR ANTI-BIOFILM ACTIVITIES” (priority 2018, published 2021):
Non-standard residues stand in square brackets, D forms with d. No end group written: not given here. hArg = N=C(N)NCCCC[C@H](N)C(=O)O; Agb = N=C(N)NCC[C@H](N)C(=O)O; Agp = N=C(N)NC[C@H](N)C(=O)O; Orn = NCCC[C@H](N)C(=O)O; Dab = NCC[C@H](N)C(=O)O; Dap = NC[C@H](N)C(=O)O

Tested on: S. aureus (MRSA SAP0017)
Assay type: cell-based, Staphylococcus aureus
Settings: for % Biofilm Inhibition: SPOT synthesized control peptides, determined as in Table 5, Table 7; for % Residual MRSA biofilm growth compared to untreated control: SPOT synthesized peptide, ~12.5 μM, clinical MRSA strain, crystal violet assay
Description: Methods of assessment of anti-biofilm activity: MRSA S. aureus strain SAP0017 biofilm formation was initially analyzed using a static abiotic solid surface assay as described elsewhere (de la Fuente-Nunez et al., 2012) and shown graphically in FIG. 2. Dilutions (1/100) of overnight cultures were incubated in BM2 biofilm-adjusted medium [62 mM potassium phosphate buffer (pH 7), 7 mM (NH4)2SO4, 2 mM MgSO4, 10 μM FeSO4, 0.4% (wt/vol) glucose, 0.5% (wt/vol) Casamino Acids], or a nutrient rich medium such as Tryptic soy broth supplemented with 1% glucose, in polypropylene microtiter plates (Falcon, United States) in the absence (control) or presence of peptide. Peptide was added at time zero (prior to adding the diluted, overnight cultures) in varying concentrations, and the amount biofilm formation was recorded after 22-46 h incubation for most bacteria. To quantify biofilm growth, planktonic cells were removed and biofilm cells adhering to the side of the wells were stained with crystal violet, and absorbance at 595 nm was measured using a microtiter plate reader (Bio-Tek Instruments Inc., United States).

Row | Substance | % Biofilm Inhibition | % Residual MRSA biofilm growth compared to untreated control
1 | C95 (V[Dab]LIVAVRIWRR) [Peptide C95] | 71% | 
2 | C58 (V[Agp]LIVAVRIWRR) [Peptide C58] | 96% | 
3 | C106 (VR[Orn]IVAVRIWRR-NH2; N-terminus assumed; SMILES CC[C@H](C)[C@H](NC(=O)[C@H](CCCNC(=N)N)NC(=O)[C@@H](NC(=O)[C@H](C)NC(=O)[C@@H](NC(=O)[C@@H](NC(=O)[C@H](CCCN)NC(=O)[C@H](CCCNC(=N)N)NC(=O)[C@@H](N)C(C)C)[C@@H](C)CC)C(C)C)C(C)C)C(=O)N[C@@H](Cc1c[nH]c2ccccc12)C(=O)N[C@@H](CCCNC(=N)N)C(=O)N[C@@H](CCCNC(=N)N)C(N)=O) [Peptide C106] | 104% | 
4 | C81 (VR[hArg]IVAVRIWRR) [Peptide C81] | 107% | 
5 | C86 (VRLIVAVRI[hArg]RR) [Peptide C86] | 75% | 
6 | C80 (V[hArg]LIVAVRIWRR) [Peptide C80] | 99% | 
7 | C110 (VRLIVAVR[Orn]WRR-NH2; N-terminus assumed; SMILES CC[C@H](C)[C@H](NC(=O)[C@H](CC(C)C)NC(=O)[C@H](CCCNC(=N)N)NC(=O)[C@@H](N)C(C)C)C(=O)N[C@H](C(=O)N[C@@H](C)C(=O)N[C@H](C(=O)N[C@@H](CCCNC(=N)N)C(=O)N[C@@H](CCCN)C(=O)N[C@@H](Cc1c[nH]c2ccccc12)C(=O)N[C@@H](CCCNC(=N)N)C(=O)N[C@@H](CCCNC(=N)N)C(N)=O)C(C)C)C(C)C) [Peptide C110] | 100% | 
8 | VRLIVAVRIWROrn (VRLIVAVRIWR[Orn]-NH2; N-terminus assumed; SMILES CC[C@H](C)[C@H](NC(=O)[C@H](CCCNC(=N)N)NC(=O)[C@@H](NC(=O)[C@H](C)NC(=O)[C@@H](NC(=O)[C@@H](NC(=O)[C@H](CC(C)C)NC(=O)[C@H](CCCNC(=N)N)NC(=O)[C@@H](N)C(C)C)[C@@H](C)CC)C(C)C)C(C)C)C(=O)N[C@@H](Cc1c[nH]c2ccccc12)C(=O)N[C@@H](CCCNC(=N)N)C(=O)N[C@@H](CCCN)C(N)=O) [Peptide 1018-k36] |  | 20%
9 | C72 (VRLI[Agb]AVRIWRR; not fully specified (C-terminus); printed as VRLIGbutAVRIWRR) [Peptide C72] | 105% | 
10 | C89 (VRL[Dap]VAVRIWRR) [Peptide C89] | 99% | 
11 | C103 (VRLIVAVRI[Dab]RR-NH2; N-terminus assumed; SMILES CC[C@H](C)[C@H](NC(=O)[C@H](CCCNC(=N)N)NC(=O)[C@@H](NC(=O)[C@H](C)NC(=O)[C@@H](NC(=O)[C@@H](NC(=O)[C@H](CC(C)C)NC(=O)[C@H](CCCNC(=N)N)NC(=O)[C@@H](N)C(C)C)[C@@H](C)CC)C(C)C)C(C)C)C(=O)N[C@@H](CCN)C(=O)N[C@@H](CCCNC(=N)N)C(=O)N[C@@H](CCCNC(=N)N)C(N)=O) [Peptide C103] | 102% | 
12 | C78 (VRLIVAVRIW[Agb]R; not fully specified (C-terminus); printed as VRLIVAVRIWGbutR) [Peptide C78] | 101% | 
13 | C71 (VRL[Agb]VAVRIWRR; not fully specified (C-terminus); printed as VRLGbutVAVRIWRR) [Peptide C71] | 103% | 
14 | C102 (VRLIVAVR[Dab]WRR-NH2; N-terminus assumed; SMILES CC[C@H](C)[C@H](NC(=O)[C@H](CC(C)C)NC(=O)[C@H](CCCNC(=N)N)NC(=O)[C@@H](N)C(C)C)C(=O)N[C@H](C(=O)N[C@@H](C)C(=O)N[C@H](C(=O)N[C@@H](CCCNC(=N)N)C(=O)N[C@@H](CCN)C(=O)N[C@@H](Cc1c[nH]c2ccccc12)C(=O)N[C@@H](CCCNC(=N)N)C(=O)N[C@@H](CCCNC(=N)N)C(N)=O)C(C)C)C(C)C) [Peptide C102] | 104% | 
15 | C111 (VRLIVAVRI[Orn]RR) [Peptide C111] | 92% | 
16 | C61 (VRLI[Agp]AVRIWRR-NH2; N-terminus assumed; SMILES CC[C@H](C)[C@H](NC(=O)[C@H](CC(C)C)NC(=O)[C@H](CCCNC(=N)N)NC(=O)[C@@H](N)C(C)C)C(=O)N[C@@H](CNC(=N)N)C(=O)N[C@@H](C)C(=O)N[C@H](C(=O)N[C@@H](CCCNC(=N)N)C(=O)N[C@H](C(=O)N[C@@H](Cc1c[nH]c2ccccc12)C(=O)N[C@@H](CCCNC(=N)N)C(=O)N[C@@H](CCCNC(=N)N)C(N)=O)[C@@H](C)CC)C(C)C) [Peptide C61] | 101% | 
17 | VOrnLIVAVRIWRR (V[Orn]LIVAVRIWRR-NH2; N-terminus assumed; SMILES CC[C@H](C)[C@H](NC(=O)[C@H](CCCNC(=N)N)NC(=O)[C@@H](NC(=O)[C@H](C)NC(=O)[C@@H](NC(=O)[C@@H](NC(=O)[C@H](CC(C)C)NC(=O)[C@H](CCCN)NC(=O)[C@@H](N)C(C)C)[C@@H](C)CC)C(C)C)C(C)C)C(=O)N[C@@H](Cc1c[nH]c2ccccc12)C(=O)N[C@@H](CCCNC(=N)N)C(=O)N[C@@H](CCCNC(=N)N)C(N)=O) [Peptide 1018-k26] |  | 63%

Row | Substance | % Biofilm Inhibition | % Residual MRSA biofilm growth compared to untreated control
18 | C94 (VRLIVAVR[Dap]WRR) [Peptide C94] | 92% | 
19 | GbutRLIVAVRIWRR ([Agb]RLIVAVRIWRR-NH2; N-terminus assumed; SMILES CC[C@H](C)[C@H](NC(=O)[C@H](CCCNC(=N)N)NC(=O)[C@@H](NC(=O)[C@H](C)NC(=O)[C@@H](NC(=O)[C@@H](NC(=O)[C@H](CC(C)C)NC(=O)[C@H](CCCNC(=N)N)NC(=O)[C@@H](N)CCNC(=N)N)[C@@H](C)CC)C(C)C)C(C)C)C(=O)N[C@@H](Cc1c[nH]c2ccccc12)C(=O)N[C@@H](CCCNC(=N)N)C(=O)N[C@@H](CCCNC(=N)N)C(N)=O) [Peptide 1018-r13] |  | 47%
20 | C91 (VRLIV[Dap]VRIWRR) [Peptide C91] | 76% | 
21 | C83 (VRLI[hArg]AVRIWRR) [Peptide C83] | 106% | 
22 | VRLIVAVRIWHarR (VRLIVAVRIW[hArg]R-NH2; N-terminus assumed; SMILES CC[C@H](C)[C@H](NC(=O)[C@H](CCCNC(=N)N)NC(=O)[C@@H](NC(=O)[C@H](C)NC(=O)[C@@H](NC(=O)[C@@H](NC(=O)[C@H](CC(C)C)NC(=O)[C@H](CCCNC(=N)N)NC(=O)[C@@H](N)C(C)C)[C@@H](C)CC)C(C)C)C(C)C)C(=O)N[C@@H](Cc1c[nH]c2ccccc12)C(=O)N[C@@H](CCCCNC(=N)N)C(=O)N[C@@H](CCCNC(=N)N)C(N)=O) [Peptide 1018-r35] |  | 33%
23 | C59 (VR[Agp]IVAVRIWRR-NH2; N-terminus assumed; SMILES CC[C@H](C)[C@H](NC(=O)[C@H](CCCNC(=N)N)NC(=O)[C@@H](NC(=O)[C@H](C)NC(=O)[C@@H](NC(=O)[C@@H](NC(=O)[C@H](CNC(=N)N)NC(=O)[C@H](CCCNC(=N)N)NC(=O)[C@@H](N)C(C)C)[C@@H](C)CC)C(C)C)C(C)C)C(=O)N[C@@H](Cc1c[nH]c2ccccc12)C(=O)N[C@@H](CCCNC(=N)N)C(=O)N[C@@H](CCCNC(=N)N)C(N)=O) [Peptide C59] | 104% | 
24 | C87 (V[Dap]LIVAVRIWRR) [Peptide C87] | 73% | 
25 | C82 (VRL[hArg]VAVRIWRR) [Peptide C82] | 106% | 
26 | VRLIVOrnVRIWRR (VRLIV[Orn]VRIWRR-NH2; N-terminus assumed; SMILES CC[C@H](C)[C@H](NC(=O)[C@H](CCCNC(=N)N)NC(=O)[C@@H](NC(=O)[C@H](CCCN)NC(=O)[C@@H](NC(=O)[C@@H](NC(=O)[C@H](CC(C)C)NC(=O)[C@H](CCCNC(=N)N)NC(=O)[C@@H](N)C(C)C)[C@@H](C)CC)C(C)C)C(C)C)C(=O)N[C@@H](Cc1c[nH]c2ccccc12)C(=O)N[C@@H](CCCNC(=N)N)C(=O)N[C@@H](CCCNC(=N)N)C(N)=O) [Peptide 1018-k30] |  | 27%
27 | IVKWIAQWKLVG (IVKWIAQWKLVG-NH2) [Imax-10] |  | 100%
28 | C75 (VRLIVAV[Agb]IWRR; not fully specified (C-terminus); printed as VRLIVAVGbutIWRR) [Peptide C75] | 103% | 
29 | C67 (VRLIVAVRIW[Agp]R-NH2; N-terminus assumed; SMILES CC[C@H](C)[C@H](NC(=O)[C@H](CCCNC(=N)N)NC(=O)[C@@H](NC(=O)[C@H](C)NC(=O)[C@@H](NC(=O)[C@@H](NC(=O)[C@H](CC(C)C)NC(=O)[C@H](CCCNC(=N)N)NC(=O)[C@@H](N)C(C)C)[C@@H](C)CC)C(C)C)C(C)C)C(=O)N[C@@H](Cc1c[nH]c2ccccc12)C(=O)N[C@@H](CNC(=N)N)C(=O)N[C@@H](CCCNC(=N)N)C(N)=O) [Peptide C67] | 105% | 
30 | C68 (VRLIVAVRIWR[Agp]) [Peptide C68] | 106% | 
31 | C92 (VRLIVA[Dap]RIWRR) [Peptide C92] | 103% | 
32 | VRLIVAVOrnIWRR (VRLIVAV[Orn]IWRR-NH2; N-terminus assumed; SMILES CC[C@H](C)[C@H](NC(=O)[C@H](CCCN)NC(=O)[C@@H](NC(=O)[C@H](C)NC(=O)[C@@H](NC(=O)[C@@H](NC(=O)[C@H](CC(C)C)NC(=O)[C@H](CCCNC(=N)N)NC(=O)[C@@H](N)C(C)C)[C@@H](C)CC)C(C)C)C(C)C)C(=O)N[C@@H](Cc1c[nH]c2ccccc12)C(=O)N[C@@H](CCCNC(=N)N)C(=O)N[C@@H](CCCNC(=N)N)C(N)=O) [Peptide 1018-k32] |  | 46%
33 | C76 (VRLIVAVR[Agb]WRR; not fully specified (C-terminus); printed as VRLIVAVRGbutWRR) [Peptide C76] | 104% | 
